Assay results from ChEMBL document CHEMBL3885881, “DrugMatrix”.

Species on record: Rattus norvegicus
Test: DrugMatrix - Regimen: Daily Repeat
Type: toxicity, organism-based, Sprague-Dawley
Set-up: regimen Daily Repeat, gender Male, age 6-8 weeks
Settings: in vivo, po, route oral GAVAGE, […]; for ABSOLUTE BASOPHIL / ABSOLUTE EOSINOPHIL / ABSOLUTE LYMPHOCYTE / ABSOLUTE MONOCYTE / ABSOLUTE SEGMENTED NEUTROPHIL / BASOPHIL / EOSINOPHIL / ERYTHROCYTE COUNT / HEMATOCRIT / HEMOGLOBIN / LEUKOCYTE COUNT / LYMPHOCYTE / MEAN CORPUSCULAR HEMOGLOBIN / MEAN CORPUSCULAR HEMOGLOBIN CONCENTRATION / MEAN CORPUSCULAR VOLUME / MONOCYTE / NEUTROPHIL / NUCLEATED RED BLOOD CELLS / PLATELET COUNT: tissue Blood; for ALANINE AMINOTRANSFERASE / ALBUMIN / ALKALINE PHOSPHATASE / ASPARTATE AMINOTRANSFERASE / BLOOD UREA NITROGEN / CARBON DIOXIDE / CHLORIDE / CHOLESTEROL / CREATINE PHOSPHOKINASE / CREATININE / GLUCOSE / LACTATE DEHYDROGENASE / LIPASE / PHOSPHORUS / POTASSIUM / SODIUM / TOTAL BILIRUBIN / TOTAL PROTEIN / URIC ACID: tissue Plasma
[1] = 0.6 mg/kg, 120 h, dose level Low, time 5 day
[2] = 4.5 mg/kg, 72 h, dose level High, time 3 day
[3] = 4.5 mg/kg, 120 h, dose level High, time 5 day

## O=C(O)CCCc1ccc(N(CCCl)CCCl)cc1 [CHLORAMBUCIL]
[1]
  ABSOLUTE BASOPHIL: 0 CELLS/uL
  ABSOLUTE EOSINOPHIL: 245.67 CELLS/uL
  ABSOLUTE LYMPHOCYTE: 10916 CELLS/uL
  ABSOLUTE MONOCYTE: 468.33 CELLS/uL
  ABSOLUTE SEGMENTED NEUTROPHIL: 1403.33 CELLS/uL
  BASOPHIL: 0%
  EOSINOPHIL: 1.67%
  ERYTHROCYTE COUNT: 5.48 x10E6/uL
  HEMATOCRIT: 34.97%
  HEMOGLOBIN: 13.77 G/DL
  LEUKOCYTE COUNT: 13.03 x10E3/uL
  LYMPHOCYTE: 84.33%
  MEAN CORPUSCULAR HEMOGLOBIN: 25.13 pg
  MEAN CORPUSCULAR HEMOGLOBIN CONCENTRATION: 39.37 G/DL
  MEAN CORPUSCULAR VOLUME: 63.77 fL
  MONOCYTE: 3.67%
  NEUTROPHIL: 10.33%
  NUCLEATED RED BLOOD CELLS: 0 /100WBC
  PLATELET COUNT: 1176 x10E3/uL
  ALANINE AMINOTRANSFERASE: 57.33 u/L
  ALBUMIN: 4.03 G/DL
  ALKALINE PHOSPHATASE: 437.67 u/L
  ASPARTATE AMINOTRANSFERASE: 74.67 u/L
  BLOOD UREA NITROGEN: 12 mg/dL
  CARBON DIOXIDE: 24.33 mmol/L
  CHLORIDE: 100.67 MEQ/L
  CHOLESTEROL: 76.67 mg/dL
  CREATINE PHOSPHOKINASE: 301 u/L
  CREATININE: 0.16 mg/dL
  GLUCOSE: 184.33 mg/dL
  LACTATE DEHYDROGENASE: 187.33 u/L
  LIPASE: 7 u/L
  PHOSPHORUS: 10.63 mg/dL
  POTASSIUM: 6.13 MEQ/L
  SODIUM: 139.57 MEQ/L
  TOTAL BILIRUBIN: 0.13 mg/dL
  TOTAL PROTEIN: 5.83 G/DL
  URIC ACID: 1.33 mg/dL
[2]
  ABSOLUTE BASOPHIL: 0 CELLS/uL
  ABSOLUTE EOSINOPHIL: 76.67 CELLS/uL
  ABSOLUTE LYMPHOCYTE: 5496.33 CELLS/uL
  ABSOLUTE MONOCYTE: 177.33 CELLS/uL
  ABSOLUTE SEGMENTED NEUTROPHIL: 816.33 CELLS/uL
  BASOPHIL: 0%
  EOSINOPHIL: 1.33%
  ERYTHROCYTE COUNT: 5.43 x10E6/uL
  HEMATOCRIT: 34.5%
  HEMOGLOBIN: 13.73 G/DL
  LEUKOCYTE COUNT: 6.57 x10E3/uL
  LYMPHOCYTE: 84.33%
  MEAN CORPUSCULAR HEMOGLOBIN: 25.33 pg
  MEAN CORPUSCULAR HEMOGLOBIN CONCENTRATION: 39.77 G/DL
  MEAN CORPUSCULAR VOLUME: 63.67 fL
  MONOCYTE: 2.67%
  NEUTROPHIL: 11.67%
  NUCLEATED RED BLOOD CELLS: 0 /100WBC
  PLATELET COUNT: 1208.33 x10E3/uL
  ALANINE AMINOTRANSFERASE: 50 u/L
  ALBUMIN: 4.1 G/DL
  ALKALINE PHOSPHATASE: 336 u/L
  ASPARTATE AMINOTRANSFERASE: 69 u/L
  BLOOD UREA NITROGEN: 13 mg/dL
  CARBON DIOXIDE: 25.33 mmol/L
  CHLORIDE: 100.33 MEQ/L
  CHOLESTEROL: 70.67 mg/dL
  CREATINE PHOSPHOKINASE: 260.33 u/L
  CREATININE: 0.34 mg/dL
  GLUCOSE: 191.33 mg/dL
  LACTATE DEHYDROGENASE: 111 u/L
  LIPASE: 9 u/L
  PHOSPHORUS: 12.53 mg/dL
  POTASSIUM: 6.51 MEQ/L
  SODIUM: 140.03 MEQ/L
  TOTAL BILIRUBIN: 0.1 mg/dL
  TOTAL PROTEIN: 5.57 G/DL
  URIC ACID: 2.1 mg/dL
[3]
  ABSOLUTE BASOPHIL: 0 CELLS/uL
  ABSOLUTE EOSINOPHIL: 0 CELLS/uL
  ABSOLUTE LYMPHOCYTE: 1406 CELLS/uL
  ABSOLUTE MONOCYTE: 62.67 CELLS/uL
  ABSOLUTE SEGMENTED NEUTROPHIL: 98 CELLS/uL
  BASOPHIL: 0%
  EOSINOPHIL: 0%
  ERYTHROCYTE COUNT: 5.5 x10E6/uL
  HEMATOCRIT: 34.17%
  HEMOGLOBIN: 13.53 G/DL
  LEUKOCYTE COUNT: 1.57 x10E3/uL
  LYMPHOCYTE: 90%
  MEAN CORPUSCULAR HEMOGLOBIN: 24.63 pg
  MEAN CORPUSCULAR HEMOGLOBIN CONCENTRATION: 39.63 G/DL
  MEAN CORPUSCULAR VOLUME: 62.13 fL
  MONOCYTE: 4%
  NEUTROPHIL: 6%
  NUCLEATED RED BLOOD CELLS: 0 /100WBC
  PLATELET COUNT: 1169.33 x10E3/uL
  ALANINE AMINOTRANSFERASE: 45 u/L
  ALBUMIN: 3.97 G/DL
  ALKALINE PHOSPHATASE: 263.67 u/L
  ASPARTATE AMINOTRANSFERASE: 75.33 u/L
  BLOOD UREA NITROGEN: 13 mg/dL
  CARBON DIOXIDE: 24.33 mmol/L
  CHLORIDE: 101 MEQ/L
  CHOLESTEROL: 70.67 mg/dL
  CREATINE PHOSPHOKINASE: 644 u/L
  CREATININE: 0.13 mg/dL
  GLUCOSE: 157 mg/dL
  LACTATE DEHYDROGENASE: 154 u/L
  LIPASE: 7.33 u/L
  PHOSPHORUS: 9.53 mg/dL
  POTASSIUM: 6.16 MEQ/L
  SODIUM: 140.2 MEQ/L
  TOTAL BILIRUBIN: 0.2 mg/dL
  TOTAL PROTEIN: 5.73 G/DL
  URIC ACID: 1.3 mg/dL
